Measurements taken from ChEMBL document CHEMBL1151004, “The synthesis and structure activity relationships of enantiomerically pure hydroxylated oxotremorine derivatives” (Bioorg Med Chem Lett, 1992).

Key:
[1] = target: Muscarinic acetylcholine receptor; test: In vitro ability to displace 3H-cis-methyltrimethylammoniummethyl-1,3-dioxolane [3H]CD) from rat cortical Muscarinic acetylcholine receptor in competition assay; type: protein assay
[2] = target: Muscarinic acetylcholine receptor; test: In vitro ability to displace [3H]quinuclidinyl benzilate [3H]QNB) from rat cortical Muscarinic acetylcholine receptor in competition assay; type: protein assay
[3] = Compound was evaluated for ratio of 3H-QNB, [3H]CD

Compound	Ki [1]	Ki [2]	Ratio [3]
O=C1C[C@H](O)CN1CC#CCN1CCCC1	8.56 µM	7.5 µM	0.9
O=C1[C@@H](O)CCN1CC#CCN1CCCC1	0.009 µM	1.4 µM	150
C[N+](C)(C)CCOC(N)=O			2000
O=C1CCCN1CC#CCN1CC[C@@H](O)C1	2.38 µM	1.8 µM	0.7
O=C1[C@H](O)CCN1CC#CCN1CCCC1	0.12 µM	2.1 µM	17
O=C1C[C@@H](O)CN1CC#CCN1CCCC1	0.078 µM	3 µM	38
O=C1CCCN1CC#CCN1CCCC1			120
O=C1CCCN1CC#CCN1CC[C@H](O)C1	0.61 µM	1.2 µM	2
